Test results taken from patent US6551774B1, “Diagnostic methods for conditions associated with elevated cellular levels of telomerase activity” (Board of Regents, The University of Texas System, priority 1992, dated 2003).

What was measured:
[1] = system: SW26 cells; experiment: Frequency of escape from crisis (immortalization) of SW26 cells, fluctuation analysis; assay type: cell-based, human; details: bleomycin sulfate 25 μg/ml for two hours; LNL6 infection with 2 μg/ml polybrene
From the text: The frequency of escape from crisis (e.g., the immortalization frequency of T-antigen expressing cells) was estimated using an approach based on what is essentially a fluctuation analysis as previously described (Shay, J. W., and Wright, W. E. (1989) Exp. Cell Res. 184, 109-118). SW26 cells (a clone isolated from IMR 90 normal human lung fibroblasts transfected with a vector expressing SV40 large T antigen) were expanded approximately 15 PDL's before crisis into multiple series at a constant cell density of 6667 cells/cm^2. Each series was subsequently maintained as a separate culture, so that at the end of the experiment the fraction of each series that gave rise to immortal cell lines could be determined. Cultures were split at or just prior to confluence at 6667 cells/cm^2. […]
The remainder of the dishes were used as controls (70 dishes) or infected with LNL6 defective retrovirus (100 dishes). […] Within a few days after infection, all control and experimental dishes were counted and each dish contained 1-2×10^6 cells. The PDL of each dish was calculated and cells were then replated at 0.33×10^6 in 50 cm^2 dishes and maintained separately to conduct the fluctuation analysis.
Immortalization is expressed as the number of immortal lines per number of culture series, each series being derived from a single dish at the initiation of the experiment. […]

[2] = system: IMR-90 SW26 cells; experiment: Cell death of IMR-90 SW26 cells on bleomycin sulfate treatment; assay type: cell-based, human; details: 25 μg/ml for two hours in serum free medium
Protocol: SW 26 cells enter crisis at approximately PDL 82-85. Numerous vials of SW26 cells (8×10^6 cells/vial) were frozen at PDL 71, and testing verified that spontaneous immortalization events had not yet occurred. Five vials were thawed, scaled up for 4 days to approximately 10^8 cells (thus to approximately PDL 74), then trypsinized and combined into a single pool of cells in 40 ml of medium and distributed into 200 10 cm^2 dishes. Thirty dishes were treated with 25 μg/ml bleomycin sulfate (a chemical mutagen) for two hours in serum free medium one day later.

## bleomycin sulfate
[1]
  Frequency (probability of obtaining an immortal cell line based on the number of cells plated at each passage): 7.7 × 10^−7
  Immortalization (number of immortal lines per number of culture series): 7/27
[2]
  cells dying: approximately 50%
